Molecular target: T1, estrogen receptor alpha (ESR1) in MCF7 breast cancer cells (Homo sapiens, UniProt P03372)
T1 sequence (P03372 1-595): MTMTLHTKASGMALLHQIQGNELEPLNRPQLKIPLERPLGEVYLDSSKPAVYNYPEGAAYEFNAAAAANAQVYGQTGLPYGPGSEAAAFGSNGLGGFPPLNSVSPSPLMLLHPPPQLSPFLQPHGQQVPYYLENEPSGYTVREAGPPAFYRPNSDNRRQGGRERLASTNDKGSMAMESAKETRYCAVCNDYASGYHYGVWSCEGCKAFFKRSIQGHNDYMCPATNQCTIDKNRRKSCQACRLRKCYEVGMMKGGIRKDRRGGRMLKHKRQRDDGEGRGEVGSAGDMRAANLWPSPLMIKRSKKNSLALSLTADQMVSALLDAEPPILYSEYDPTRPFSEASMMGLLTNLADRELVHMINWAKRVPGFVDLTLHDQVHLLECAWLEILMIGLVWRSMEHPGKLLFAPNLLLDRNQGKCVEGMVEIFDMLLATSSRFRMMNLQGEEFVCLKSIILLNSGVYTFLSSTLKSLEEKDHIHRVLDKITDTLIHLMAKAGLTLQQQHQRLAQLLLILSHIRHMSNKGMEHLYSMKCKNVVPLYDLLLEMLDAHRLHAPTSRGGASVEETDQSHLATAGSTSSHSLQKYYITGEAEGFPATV
Assay: Breast Cancer Cell ERa High Content Fluorescence Imaging Degradation Assay (ER-alpha MCF7 HCS)
Format: cell-based
Parameters: MCF7 breast cancer cells were seeded on day 1 at a density of 10,000 cells per well; endogenous in cells; host or cells: MCF7 breast cancer cells
Conditions: 4 hours, plateau of the maximal effect, DMSO and fulvestrant define 0% and 100% change in ESR1, Table 1b
Procedure: All of the exemplary Formula I, II, and III compounds in Tables 1a and 1b were made and characterized by LCMS [M+H]^+ (liquid chromatography mass spectroscopy) with detection of parent ion. All of the exemplary Formula I, II, and III compounds in Tables 1a and 1b were tested for binding to ERa (Estrogen Receptor alpha) and biological activity according to the assays, protocols, and procedures of Examples 901-907. ER-alpha MCF7 HCS Sinf (%) values in Tables 1a and 1b were measured by the Breast Cancer Cell ERa High Content Fluorescence Imaging Degradation Assay of Example 901. ER-alpha MCF7 HCS EC50 (μM) values in Tables 1a and 1b were measured by the in vitro cell proliferation assays described in Examples 902 and 903. The rat uterine wet weight assays of Examples 906 and 907 allow rapid determination of compound antagonist activity in an ER responsive tissue (immature rat uterus) while competing against the native ER ligand estradiol, i.e. antagonist mode (Ashby, J.; et al (1997) Regulatory toxicology and pharmacology: RTP, 25 (3):226-31). […]
MCF7 breast cancer cells were seeded on day 1 at a density of 10,000 cells per well in 384 well poly-lysine coated tissue culture plate (Greiner # T-3101-4), in 50 μL/well RPMI (phenol red free), 10% FBS (Charcoal stripped), containing L-glutamine. […] Quantitative fluorescence imaging of ESR1 was carried out using a Cellomics Arrayscan V (Thermo). […]

ERalpha (WT) MCF7HCS (Sinf): −93
Compound: C[C@@H]1Cc2oc3ccccc3c2[C@@H](c2c(F)cc(OCCN3CC(CF)C3)cc2F)N1CC(F)(F)CO [Example 170]

Source: patent US10654867B2 (Genentech, Inc., priority 2016, dated 2020)
